Data on 2 compounds can be found in patent publication US11331326B2, “Composition for prevention or treatment of inflammatory skin diseases or severe pruritus comprising the aqueous solubilized ursodeoxycholic acid” (AMICOGEN PHARMA INC., priority 2016, dated 2022).

The conditions of series [1]: protonated form (pH 1 to 8); cited from earlier work.
A short description of series [2]: Solubility of ursodeoxycholic acid in water. The series is classed as physicochemical. Conditions: pH 1 to 8.
The conditions of series [3]: crystalline type of ursodeoxycholic acid; cited from earlier work.
For series [4] the following is noted: oral administration, crystalline form of UDCA; cited from earlier work.

In brackets after ≈: the same amount, converted by molar mass.

Broadly, the solubility is the dissolved amount per volume that the medium holds. For `C[C@H](CCC(=O)NCCS(=O)(=O)O)[C@H]1CC[C@H]2[C@@H]3[C@@H](O)C[C@@H]4C[C@H](O)CC[C@]4(C)[C@H]3CC[C@]12C` [TUDCA, tauroursodeoxycholic acid], the solubility in series [1] is 450 µM (≈ 225 µg/mL). For the same compound, the “solubility relative to the commercialized UDCA” value in series [2] is “about 10 times”.
For the compound `C[C@H](CCC(=O)O)[C@H]1CC[C@H]2[C@@H]3[C@@H](O)C[C@@H]4C[C@H](O)CC[C@]4(C)[C@H]3CC[C@]12C` [UDCA, ursodeoxycholic acid], the solubility entry in series [1] is listed as “about 0.05 mM”. The “acid dissociation constant, pKa” value in series [3] is on record as “about 5.0”. Also, in series [4], the “fraction absorbed at the ileum of the colon by the active transport mechanism” value is listed as “up to 20 % of intakes”.
